Experiments:
[1] = target: Mitogen-activated protein kinase 3 (Homo sapiens, UniProt P27361); test: DRUGMATRIX: Protein Serine/Threonine Kinase, ERK1 enzyme inhibition (substrate: Myelin Basic Protein); parameters: species or system Escherichia coli; conditions: Not Active = under 50% inhibition at 10 µM
[2] = target: T1, Receptor-type tyrosine-protein phosphatase C (Homo sapiens, UniProt P08575); parameters: species or system Escherichia coli;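 note: inhibition of CD45 enzyme activity measured using DiFMUP as substrate; in other assays of this panel Not Active means under 50% inhibition at 10 µM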
T1 sequence (P08575 whole entry): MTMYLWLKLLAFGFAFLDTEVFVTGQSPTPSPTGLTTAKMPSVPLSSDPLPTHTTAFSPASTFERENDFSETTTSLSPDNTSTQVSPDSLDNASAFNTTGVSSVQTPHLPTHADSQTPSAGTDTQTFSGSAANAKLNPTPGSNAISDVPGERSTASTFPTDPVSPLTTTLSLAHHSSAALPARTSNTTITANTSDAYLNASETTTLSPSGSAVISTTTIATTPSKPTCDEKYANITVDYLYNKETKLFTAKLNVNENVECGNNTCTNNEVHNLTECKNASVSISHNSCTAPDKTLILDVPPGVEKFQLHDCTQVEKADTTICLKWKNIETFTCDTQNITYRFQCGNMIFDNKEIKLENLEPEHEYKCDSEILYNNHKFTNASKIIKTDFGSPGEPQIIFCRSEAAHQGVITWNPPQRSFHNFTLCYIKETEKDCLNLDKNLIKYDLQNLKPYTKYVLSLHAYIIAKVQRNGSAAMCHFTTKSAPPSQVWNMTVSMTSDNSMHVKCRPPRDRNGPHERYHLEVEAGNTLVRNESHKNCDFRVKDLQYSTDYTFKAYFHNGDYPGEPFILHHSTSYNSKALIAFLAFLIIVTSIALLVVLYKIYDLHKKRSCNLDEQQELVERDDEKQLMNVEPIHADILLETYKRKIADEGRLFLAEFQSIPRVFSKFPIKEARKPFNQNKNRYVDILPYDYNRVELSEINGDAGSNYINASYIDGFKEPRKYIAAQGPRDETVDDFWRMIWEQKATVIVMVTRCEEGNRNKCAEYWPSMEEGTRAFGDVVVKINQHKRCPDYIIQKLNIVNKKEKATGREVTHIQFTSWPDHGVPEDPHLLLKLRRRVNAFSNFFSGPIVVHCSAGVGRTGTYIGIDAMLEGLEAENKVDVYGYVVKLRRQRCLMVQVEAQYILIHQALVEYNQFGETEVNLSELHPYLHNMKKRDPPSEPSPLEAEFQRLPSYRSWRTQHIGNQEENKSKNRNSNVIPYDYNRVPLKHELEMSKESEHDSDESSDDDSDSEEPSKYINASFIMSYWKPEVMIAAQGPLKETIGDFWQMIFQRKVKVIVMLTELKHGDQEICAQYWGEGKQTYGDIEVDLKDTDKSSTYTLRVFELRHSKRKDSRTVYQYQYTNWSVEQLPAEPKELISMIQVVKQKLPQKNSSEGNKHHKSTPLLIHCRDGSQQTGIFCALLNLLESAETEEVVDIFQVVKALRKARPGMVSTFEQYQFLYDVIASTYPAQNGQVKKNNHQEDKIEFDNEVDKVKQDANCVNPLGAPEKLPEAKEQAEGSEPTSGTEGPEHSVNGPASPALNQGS

[3] = target: T2, Interstitial collagenase (Homo sapiens, UniProt P03956); test: biochemical; assay type: tissue-based, Rheumatoid synovial fibroblasts;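 note: MMP-1 enzyme inhibition assay using a peptide substrate; in other assays of this panel Not Active means under 50% inhibition at 10 µM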
T2 sequence (P03956 whole entry): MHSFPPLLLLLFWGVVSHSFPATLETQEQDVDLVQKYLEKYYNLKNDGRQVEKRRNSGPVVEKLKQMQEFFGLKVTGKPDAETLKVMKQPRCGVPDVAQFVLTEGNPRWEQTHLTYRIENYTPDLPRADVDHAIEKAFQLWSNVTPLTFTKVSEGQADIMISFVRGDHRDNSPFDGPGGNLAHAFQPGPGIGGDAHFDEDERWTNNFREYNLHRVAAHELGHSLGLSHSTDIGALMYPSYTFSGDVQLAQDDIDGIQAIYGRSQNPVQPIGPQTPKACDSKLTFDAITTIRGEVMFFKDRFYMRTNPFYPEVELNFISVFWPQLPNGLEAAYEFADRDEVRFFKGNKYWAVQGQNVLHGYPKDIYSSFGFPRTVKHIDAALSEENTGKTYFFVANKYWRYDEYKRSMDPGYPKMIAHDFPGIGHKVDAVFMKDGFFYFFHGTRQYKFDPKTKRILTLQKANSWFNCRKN

[4] = DRUGMATRIX: Tumor Necrosis Factor (TNF), Non-Selective radioligand binding (ligand: [125I] TNF-alpha); assay type: cell membranes, Membrane; conditions: u-937; Not Active = under 50% inhibition at 10 µM
[5] = DRUGMATRIX: ATPase, Na+/K+ enzyme inhibition (substrate: ATP); assay type: tissue-based, Sus scrofa, Heart; conditions: Not Active = under 50% inhibition at 10 µM
[6] = DRUGMATRIX: GABAA, Muscimol, Central radioligand binding (ligand: [3H] Muscimol); assay type: cell membranes, Rattus norvegicus, Wistar, Brain, Membrane; conditions: Not Active = under 50% inhibition at 10 µM
[7] = DRUGMATRIX: Serotonin (5-Hydroxytryptamine) 5-HT3 radioligand binding (ligand: [3H] GR-65630); assay type: cell membranes, Membrane; conditions: hek293; Not Active = under 50% inhibition at 10 µM
[8] = target: Melanocortin receptor 5 (Homo sapiens, UniProt P33032); assay type: cell membranes, HEK293, Membrane; note: in other assays of this panel Not Active means under 50% inhibition at 10 µM
Chain of Melanocortin receptor 5 (P33032 whole entry): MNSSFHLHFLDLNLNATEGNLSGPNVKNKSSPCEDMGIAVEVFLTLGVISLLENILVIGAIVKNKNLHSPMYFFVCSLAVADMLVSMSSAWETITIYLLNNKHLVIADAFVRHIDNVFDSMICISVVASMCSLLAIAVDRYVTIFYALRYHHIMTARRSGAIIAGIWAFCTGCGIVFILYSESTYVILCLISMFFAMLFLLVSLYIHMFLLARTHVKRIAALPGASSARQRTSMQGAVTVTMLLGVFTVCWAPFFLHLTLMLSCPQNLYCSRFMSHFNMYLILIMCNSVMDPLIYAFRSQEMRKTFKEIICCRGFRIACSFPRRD

Chain of Mitogen-activated protein kinase 3 (P27361 whole entry): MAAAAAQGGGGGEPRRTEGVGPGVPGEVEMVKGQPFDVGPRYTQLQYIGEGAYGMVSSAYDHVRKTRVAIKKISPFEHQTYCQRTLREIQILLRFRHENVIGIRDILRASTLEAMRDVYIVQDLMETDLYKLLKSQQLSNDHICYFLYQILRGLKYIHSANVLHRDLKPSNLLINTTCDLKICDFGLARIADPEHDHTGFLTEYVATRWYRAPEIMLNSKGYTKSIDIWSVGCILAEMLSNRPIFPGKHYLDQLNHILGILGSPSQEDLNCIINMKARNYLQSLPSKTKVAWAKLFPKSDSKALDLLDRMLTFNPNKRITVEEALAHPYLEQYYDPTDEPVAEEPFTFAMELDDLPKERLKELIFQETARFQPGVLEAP

Row | Compound | IC50 ([1]; read-out: IC50) | IC50 [2] | IC50 [3] | IC50 [4] | Ki [4] | IC50 [5] | Ki [5] | IC50 [6] | Ki [6] | IC50 [7] | Ki [7] | IC50 ([8]; hek293) | IC50 [1] | IC50 ([8]; read-out: IC50) | Ki ([8]; read-out: Ki) | Ki [1] | Ki [2] | Ki [3] | Ki ([8]; hek293)
1 | Cc1c(C)c2c(c(C)c1O)CCC(C)(CN1CCN(c3cc(N4CCCC4)nc(N4CCCC4)n3)CC1)O2 (centres undefined) | 4.96 µM | Not Active | Not Active | Not Active | Not Active | Not Active | Not Active | Not Active | Not Active | Not Active | Not Active | Not Active |  |  |  |  |  |  | 
2 | COc1ccc(CCN(C)CCCC(C#N)(c2ccc(OC)c(OC)c2)C(C)C)cc1OC (centres undefined) |  | Not Active | Not Active | Not Active | Not Active | Not Active | Not Active | Not Active | Not Active | Not Active | Not Active | Not Active | Not Active |  |  |  |  |  | 
3 | CC(C)Cc1ccc([C@@H](C)C(=O)O)cc1 [(R)-IBUPROPHEN] |  | Not Active | Not Active | Not Active | Not Active | Not Active | Not Active | Not Active | Not Active | Not Active | Not Active | Not Active | Not Active |  |  |  |  |  | 
4 | CN(C)CCOC(c1ccccc1)c1ccccc1 [DIPHENHYDRAMINE] |  | Not Active | Not Active |  |  |  |  |  |  |  |  | Not Active | Not Active |  |  |  |  |  | 
5 | Clc1ccc(COC(Cn2ccnc2)c2ccc(Cl)cc2Cl)cc1 (centres undefined) [ECONAZOLE] |  | Not Active | Not Active |  |  |  |  |  |  |  |  |  | Not Active | 39.5 µM | 37.1 µM |  |  |  | 
6 | CCN(CC)CCOc1ccc(/C(=C(/Cl)c2ccccc2)c2ccccc2)cc1 [ENCLOMIPHENE] |  | Not Active | Not Active |  |  |  |  |  |  |  |  | Not Active | Not Active |  |  |  |  |  | 
7 | Fc1ccc(C(c2ccc(F)cc2)N2CCN(C/C=C/c3ccccc3)CC2)cc1 [FLUNARIZINE] |  | Not Active | Not Active |  |  |  |  |  |  |  |  | Not Active | Not Active |  |  |  |  |  | 
8 | CNCCC(Oc1ccc(C(F)(F)F)cc1)c1ccccc1 (centres undefined) [FLUOXETINE] |  | Not Active | Not Active |  |  |  |  |  |  |  |  | Not Active | Not Active |  |  |  |  |  | 
9 | Cc1ccc(NC(=O)c2ccc(CN3CCN(C)CC3)cc2)cc1Nc1nccc(-c2cccnc2)n1 [IMATINIB] |  | Not Active | Not Active |  |  |  |  |  |  |  |  | Not Active |  |  |  |  |  |  | 
10 | CC(C)Oc1ccc2c(=O)c(-c3ccccc3)coc2c1 [IPRIFLAVONE] |  | Not Active | Not Active | Not Active | Not Active | Not Active | Not Active | Not Active | Not Active | Not Active | Not Active | Not Active | Not Active |  |  |  |  |  | 
11 | CC(C)NCC(O)c1ccc(O)c(O)c1 (centres undefined) [ISOPROTERENOL] |  | Not Active | Not Active | Not Active | Not Active | Not Active | Not Active | Not Active | Not Active | Not Active | Not Active | Not Active | Not Active |  |  |  |  |  | 
12 | CNC1(c2ccccc2Cl)CCCCC1=O (centres undefined) [KETAMINE] |  | Not Active | Not Active | Not Active | Not Active | Not Active | Not Active | Not Active | Not Active | Not Active | Not Active | Not Active | Not Active |  |  |  |  |  | 
13 | N#Cc1ccc(C(c2ccc(C#N)cc2)n2cncn2)cc1 [LETROZOLE] |  | Not Active | Not Active | Not Active | Not Active | Not Active | Not Active | Not Active | Not Active | Not Active | Not Active | Not Active | Not Active |  |  |  |  |  | 
14 | CCN1CCC[C@H]1CNC(=O)c1cc(S(N)(=O)=O)ccc1OC [LEVOSULPIRIDE] |  | Not Active | Not Active | Not Active | Not Active | Not Active | Not Active | Not Active | Not Active | Not Active | Not Active | Not Active | Not Active |  |  |  |  |  | 
15 | CCN(CC)CC(=O)Nc1c(C)cccc1C [LIDOCAINE] |  | Not Active | Not Active | Not Active | Not Active | Not Active | Not Active | Not Active | Not Active | Not Active | Not Active | Not Active | Not Active |  |  |  |  |  | 
16 | O=C1Nc2ccc(Cl)cc2C(c2ccccc2Cl)=NC1O (centres undefined) [LORAZEPAM] |  | Not Active | Not Active | Not Active | Not Active | Not Active | Not Active | Not Active | Not Active | Not Active | Not Active | Not Active | Not Active |  |  |  |  |  | 
17 | CO[C@@H]1[C@@H](OC)[C@H](C)[C@@](O)(CC(=O)O)O[C@H]1[C@H](C)[C@H]1O[C@@]2(CC[C@@](C)([C@H]3CC[C@@](C)([C@@H]4O[C@@H]([C@H]5O[C@](C)(O)[C@H](C)C[C@@H]5C)C[C@@H]4O[C@@H]4C[C@H](OC)[C@@H](OC)[C@H](C)O4)O3)O2)C[C@H](O)[C@H]1C [MADURAMICIN ACID] |  | Not Active | Not Active | Not Active | Not Active | Not Active | Not Active | Not Active | Not Active | Not Active | Not Active | Not Active | Not Active |  |  |  |  |  | 
18 | COc1c2occc2cc2ccc(=O)oc12 [METHOXSALEN] |  | Not Active | Not Active | Not Active | Not Active | Not Active | Not Active | Not Active | Not Active | Not Active | Not Active | Not Active | Not Active |  |  |  |  |  | 
19 | C[C@H]1C[C@@H]2[C@H]([C@@H](O)C[C@@]3(C)[C@H]2CC[C@]3(O)C(=O)CO)[C@@]2(C)C=CC(=O)C=C12 [METHYLPREDNISOLONE] |  | Not Active | Not Active | Not Active | Not Active | Not Active | Not Active | Not Active | Not Active | Not Active | Not Active | Not Active | Not Active |  |  |  |  |  | 
20 | CN[C@H]1CC[C@@H](c2ccc(Cl)c(Cl)c2)c2ccccc21 [SERTRALINE] |  | Not Active | Not Active |  |  |  |  |  |  |  |  |  | Not Active | 4.6 µM | 4.31 µM |  |  |  | 
21 | SODIUM ORTHOVANAD |  | Not Active | Not Active | Not Active | Not Active |  |  | Not Active | Not Active | Not Active | Not Active | Not Active | Not Active |  |  | Not Active | Not Active | Not Active | Not Active

From ChEMBL document CHEMBL1909046, “DrugMatrix in vitro pharmacology data”
